Results on 29 molecules are retold here after patent US20070197590A1, “SUBSTITUTED DIPIPERIDINE CCR2 ANTAGONISTS” (priority 2006, published 2007).

Test [1] concerns the target T1, CCR2 (Homo sapiens, UniProt P41597).
T1 construct: host or cells: THP-1 cells
T1 sequence (P41597 1-360 isoform P41597-2): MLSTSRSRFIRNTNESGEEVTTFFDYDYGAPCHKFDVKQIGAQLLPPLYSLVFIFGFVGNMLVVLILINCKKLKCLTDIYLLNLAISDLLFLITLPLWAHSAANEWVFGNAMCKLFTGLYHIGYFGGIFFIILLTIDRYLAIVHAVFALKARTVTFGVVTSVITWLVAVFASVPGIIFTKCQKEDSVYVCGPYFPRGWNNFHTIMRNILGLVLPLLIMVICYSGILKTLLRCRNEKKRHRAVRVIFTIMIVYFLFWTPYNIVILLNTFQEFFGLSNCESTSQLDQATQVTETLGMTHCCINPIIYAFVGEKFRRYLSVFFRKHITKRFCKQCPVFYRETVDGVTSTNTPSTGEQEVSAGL
Kind of test: MCP-1 Receptor Binding Assay in THP-1 Cells. The following applies: for IC50: THP-1 cells, 0.5 nM 125I labeled MCP-1, 2 hours at 30° C., read-out: Inhibition of MCP-1 Binding IC50; for inhibition at 25 µM: test concentration of 25 μM, given where an IC50 value was not obtained, read-out: Inhibition of MCP-1 Binding, percent inhibition. The gist of the method:
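Whole THP-1 cells incubated 2 h at 30° C with 0.5 nM 125I-MCP-1 and varying compound concentrations; bound radioactivity harvested on filters and counted by scintillation. Nonspecific binding with 1 μM cold MCP-1; IC50 for inhibition of binding versus vehicle.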

In test [2] the test system is MCP-1 induced chemotaxis of THP-1 cells. The test can be described thus: MCP-1 Induced Chemotaxis in THP-1 Cells. The class given is cell-based. The following applies: Homo sapiens, MCP-1 0.01 μg/mL, 3 hours at 37° C., read-out: Inhibition of MCP-1 Induced Chemotaxis IC50. On the procedure:
MCP-1 induced chemotaxis was run in a 24-well chemotaxis chamber. MCP-1 (0.01 μg/mL) was added to the lower chamber and 100 μL of THP-1 cells (1×10^7 cell/mL) was added to the top chamber. Varying concentrations of test compound were added to the top and bottom chambers. Cells were allowed to chemotax for 3 hours at 37° C. and 5% CO2. An aliquot of the cells that had migrated to the bottom chamber was taken and counted then compared to vehicle.
Table 3 lists IC50 values for inhibition of MCP-1 induced chemotaxis.

Test [3] concerns MCP-1 induced calcium ion influx in THP-1 cells. Kind of test: MCP-1 Induced Calcium Mobilization in THP-1 Cells. The class given is cell-based. The following applies: Homo sapiens; for IC50: THP-1, THP-1 cells, 0.2 μM MCP-1, FLIPR, read-out: Inhibition of MCP-1 Induced Calcium Ion Influx IC50; for inhibition at 25 µM: THP-1, test concentration of 25 μM, given where an IC50 value was not obtained, read-out: Inhibition of MCP-1 Induced Calcium Ion Influx, percent inhibition. On the procedure: THP-1 cells were plated at a density of 8×10^5 cells/mL (100 μL/well) into poly-D lysine coated clear bottom, black 96 well plates. The cells were loaded with 5 μM fluo-3 for 45 minutes. The fluo-3 washed off and cells were incubated with varying concentrations of test compound for 15 minutes. The change in calcium ion concentration upon addition of 0.2 μM MCP-1 was determined using FLIPR and compared to vehicle.
Table 2 lists IC50 values for inhibition of MCP-1 induced influx of calcium ions.
Background: A change in cytosolic calcium serves as a functional read-out for many receptors and channels.

Structures are written as SMILES.

Turning to `COc1ccc(C2CCN(CC(O)C3(O)CCN(C(=O)/C=C/c4ccc(Cl)c(Cl)c4)CC3)CC2)cc1` (stereo not shown) [Compound 1], the half-maximal inhibitory concentration (IC50) – broadly, the midpoint of a concentration-inhibition curve – is 0.25 µM in test [1], 0.09 µM in test [2] and 0.07 µM in test [3].
As to `O=C(Nc1ccc(Cl)c(Cl)c1)N1CCC(C(O)CN2CCC(c3c[nH]c4ccccc34)CC2)CC1` (stereo not shown) [Compound 4, 4-{1-hydroxy-2-[4-(1H-indol-3-yl)-piperidin-1-yl]-ethyl}-piperidine-1-carboxylic acid (3,4-dichloro-phenyl)-amide], the IC50 is 0.03 µM in test [1], 0.004 µM in test [2] and 0.02 µM in test [3].
Take `O=C(Nc1cc(F)cc(F)c1)N1CCC(C(O)CN2CCC(c3c[nH]c4ccccc34)CC2)CC1` (stereo not shown) [Compound 5, 4-{1-hydroxy-2-[4-(1H-indol-3-yl)-piperidin-1-yl]-ethyl}-piperidine-1-carboxylic acid (3,5-difluoro-phenyl)-amide]: the values for the IC50 in test [1], in test [2] and in test [3] were 0.16 µM, 0.12 µM and 0.08 µM, respectively.
For the molecule `O=C(/C=C/c1ccc(Cl)c(Cl)c1)N1CCC(C(O)CN2CCC(c3c[nH]c4ccccc34)CC2)CC1` (stereo not shown) [Compound 6], the concentration for half-maximal inhibition (IC50) in test [1] worked out at 0.04 µM; in test [2], 0.02 µM; in test [3] it was 0.007 µM.
With `O=C(/C=C/c1cc(F)cc(F)c1)N1CCC(C(O)CN2CCC(c3c[nH]c4ccccc34)CC2)CC1` (stereo not shown) [Compound 7], the IC50 worked out at 0.03 µM in test [1], 0.03 µM in test [2] and 0.007 µM in test [3].
As to `OC(CN1CCC(c2c[nH]c3ccccc23)CC1)C1CCN(C(=S)Nc2cccc(Br)c2)CC1` (stereo not shown) [Compound 9, 4-{1-hydroxy-2-[4-(1H-indol-3-yl)-piperidin-1-yl]-ethyl}-piperidine-1-carbothioic acid (3-bromo-phenyl)-amide], the half-maximal inhibitory concentration (IC50) in test [1] was 0.05 µM; in test [2], 0.02 µM; in test [3] it was 0.12 µM.
As to `N#Cc1ccc2[nH]cc(C3CCN(CC(O)C4(O)CCN(c5nccc(C(F)(F)F)n5)CC4)CC3)c2c1` (stereo not shown) [Compound 124, 3-(1-{2-hydroxy-2-[4-hydroxy-1-(4-trifluoromethyl-pyrimidin-2-yl)-piperidin-4-yl]-ethyl}-piperidin-4-yl)-1H-indole-5-carbonitrile], the IC50 in test [1] worked out at 8.3 µM. Further, the inhibition (usually the relative decrease from the control value, in per cent) at 25 µM in test [3] was 43%.
As to `O=C(/C=C/c1ccc(F)c(F)c1)N1CCC(O)(C(O)CN2CCC(c3ccc(F)cc3)CC2)CC1` (stereo not shown) [Compound 129], the IC50 in test [1] was determined as 0.5 µM; in test [3], 8 µM.
For `O=C(/C=C/c1ccc(Cl)c(Cl)c1)N1CCC(O)(C(O)CN2CCC(c3ccc(F)cc3)CC2)CC1` (stereo not shown) [Compound 131], the figures for the concentration for half-maximal inhibition (IC50) in test [1] and in test [3] were 0.18 µM and 0.38 µM, respectively.
For the molecule `O=C(Nc1ccc(F)c(F)c1)N1CCC(O)(C(O)CN2CCC(c3ccc(F)cc3)CC2)CC1` (stereo not shown) [Compound 132, 4-{2-[4-(4-fluoro-phenyl)-piperidin-1-yl]-1-hydroxy-ethyl}-4-hydroxy-piperidine-1-carboxylic acid (3,4-difluoro-phenyl)-amide], the IC50 in test [1] stood at 2.4 µM. Further, the inhibition at 25 µM in test [3] turned out to be 26%.
For `O=C(Nc1ccc(Cl)c(Cl)c1)N1CCC(O)(C(O)CN2CCC(c3ccc(F)cc3)CC2)CC1` (stereo not shown) [Compound 134, 4-{2-[4-(4-fluoro-phenyl)-piperidin-1-yl]-1-hydroxy-ethyl}-4-hydroxy-piperidine-1-carboxylic acid (3,4-dichloro-phenyl)-amide], in test [1], the IC50 came to 1.9 µM. For the same molecule, the inhibition at 25 µM in test [3] amounted to 52%.
Turning to `OC(CN1CCC(c2ccc(F)cc2)CC1)C1(O)CCN(C(=S)Nc2ccc(Cl)c(Cl)c2)CC1` (stereo not shown) [Compound 135, 4-{2-[4-(4-fluoro-phenyl)-piperidin-1-yl]-1-hydroxy-ethyl}-4-hydroxy-piperidine-1-carbothioic acid (3,4-dichloro-phenyl)-amide], the half-inhibitory concentration (IC50) in test [1] amounted to 0.73 µM; in test [3] it was 9.2 µM.
Taken in the same sequence, the figures for `O=C(/C=C/c1ccc(Cl)c(Cl)c1)N1CCC(O)(C(O)CN2CCC(c3ccc(C(F)(F)F)cc3)CC2)CC1` (stereo not shown) [Compound 139] were 0.92 µM and 0.31 µM.
For the molecule `O=C(/C=C/c1cc(F)c(F)c(F)c1)N1CCC(O)(C(O)CN2CCC(O)(c3ccc(F)cc3)CC2)CC1` (stereo not shown) [Compound 152], the half-inhibitory concentration (IC50) in test [1] was found to be 3.1 µM. Also, the inhibition at 25 µM in test [3] is 43%.
Turning to `O=C(/C=C/c1ccc(F)c(F)c1)N1CCC(O)(C(O)CN2CCC(O)(c3ccc(F)cc3)CC2)CC1` (stereo not shown) [Compound 153], in test [1], the IC50 worked out at 0.73 µM. Besides, the inhibition at 25 µM in test [3] came out at 12%.
Regarding `O=C(/C=C/c1ccc(Cl)c(Cl)c1)N1CCC(O)(C(O)CN2CCC(c3c[nH]c4ccc(F)cc34)CC2)CC1` (stereo not shown) [Compound 158], the IC50 is 0.35 µM in test [1] and 2.1 µM in test [3].
For `O=C(/C=C/c1ccc(F)c(Br)c1)N1CCC(O)(C(O)CN2CCC(c3c[nH]c4ccc(F)cc34)CC2)CC1` (stereo not shown) [Compound 159], the IC50 in test [1] was determined as 0.73 µM; in test [3], 1.5 µM.
`O=C(CCc1ccc(Cl)cc1)N1CCC(O)(C(O)CN2CCC(c3c[nH]c4ccc(F)cc34)CC2)CC1` (stereo not shown) [Compound 160, 3-(4-chloro-phenyl)-1-(4-{2-[4-(5-fluoro-1H-indol-3-yl)-piperidin-1-yl]-1-hydroxy-ethyl}-4-hydroxy-piperidine-1-yl)-propan-1-one]: the values for the 50% inhibitory concentration (IC50) in test [1] and in test [3] were 0.84 µM and 3.6 µM, respectively.
As for `O=C(/C=C/c1ccc(Cl)c(Cl)c1)N1CCC(O)(C(O)CN2CCC(c3c[nH]c4ccc(N5CCOCC5)cc34)CC2)CC1` (stereo not shown) [Compound 169], the figures for the IC50 in test [1] and in test [3] were 0.79 µM and 5.4 µM, respectively.
`O=C(/C=C/c1ccc(Cl)cc1)N1CCC(O)(C(O)CN2CCC(c3c[nH]c4ccc(N5CCOCC5)cc34)CC2)CC1` (stereo not shown) [Compound 170]: the IC50 worked out at 4.4 µM in test [1] and 17.2 µM in test [3].
Turning to `O=C(/C=C/c1ccc(F)cc1)N1CCC(O)(C(O)CN2CCC(c3c[nH]c4ccc(N5CCOCC5)cc34)CC2)CC1` (stereo not shown) [Compound 171], in test [1], the IC50 turned out to be 12.8 µM. For the same molecule, in test [3], the inhibition at 25 µM is 22%.
For `O=C(/C=C/c1ccc(F)c(F)c1)N1CCC(O)(C(O)CN2CCC(c3c[nH]c4ccc(N5CCOCC5)cc34)CC2)CC1` (stereo not shown) [Compound 172], the IC50 in test [1] was 3.7 µM. Also, in test [3], the inhibition at 25 µM was 46%.
Regarding `O=C(/C=C/c1ccc(F)c(Br)c1)N1CCC(O)(C(O)CN2CCC(c3c[nH]c4ccc(N5CCOCC5)cc34)CC2)CC1` (stereo not shown) [Compound 173], the half-inhibitory concentration (IC50) in test [1] stood at 0.91 µM; in test [3], 1.2 µM.
As to `Cc1cccc(/C=C/C(=O)N2CCC(O)(C(O)CN3CCC(c4c[nH]c5ccc(N6CCOCC6)cc45)CC3)CC2)c1` (stereo not shown) [Compound 174], the IC50 in test [1] was determined as 3.2 µM. Also, the inhibition at 25 µM in test [3] is 44%.
Consider `O=C(/C=C/c1cc(F)c(F)cc1F)N1CCC(O)(C(O)CN2CCC(c3c[nH]c4ccc(N5CCOCC5)cc34)CC2)CC1` (stereo not shown) [Compound 175], for which the figures for the inhibition at 25 µM in test [1] and in test [3] were 70% and 24%, respectively.
Taken in the same sequence, the figures for `COc1cccc(/C=C/C(=O)N2CCC(O)(C(O)CN3CCC(c4c[nH]c5ccc(N6CCOCC6)cc45)CC3)CC2)c1` (stereo not shown) [Compound 177] were 53% and 27%.
As to `O=C(/C=C/c1ccsc1)N1CCC(O)(C(O)CN2CCC(c3c[nH]c4ccc(N5CCOCC5)cc34)CC2)CC1` (stereo not shown) [Compound 178], the figures for the inhibition at 25 µM in test [1] and in test [3] were 59% and 2%, respectively.
Consider `OC(CN1CCC(c2c[nH]c3ccc(N4CCOCC4)cc23)CC1)C1(O)CCN(C(=S)Nc2cc(Cl)cc(Cl)c2)CC1` (stereo not shown) [Compound 182, 4-hydroxy-4-{1-hydroxy-2-[4-(5-morpholin-4-yl-1H-indol-3-yl)-piperidin-1-yl]-ethyl}-piperidine-1-carbothioic acid (3,5-dichloro-phenyl)-amide], for which the 50% inhibitory concentration (IC50) in test [1] came to 4.9 µM; in test [3], 5.4 µM.
Turning to `CC(=O)Nc1ccc2[nH]cc(C3CCN(CC(O)C4CCN(C(=O)OCc5ccccc5)CC4)CC3)c2c1` (stereo not shown) [Compound 184, 4-{2-[4-(5-acetylamino-1H-indol-3-yl)-piperidin-1-yl]-1-hydroxy-ethyl}-piperidine-1-carboxylic acid benzyl ester], the inhibition at 25 µM worked out at 61% in test [1] and 13% in test [3].
